Calls of active or inactive are those of the source. No cut-off for these calls is given here.
Assays:
[1] = Antiproliferative activity against human HCT116 cells after 72 hrs by MTT assay; assay type: functional, cell-based; details: HCT-116, 72 h
[2] = Antiproliferative activity against human U87MG cells after 72 hrs by MTT assay; assay type: functional, cell-based, U-87MG ATCC; details: U-87 MG
[3] = Antiproliferative activity against human HCT116 cells assessed as inhibitory ratio at 10 uM after 72 hrs by MTT assay; assay type: functional; details: HCT-116, 72 h
HCT-116 [4] = test: Induction of apoptosis in human HCT116 cells assessed as cell shrinking and vacuolization, chromatin condensation and nuclear fragmentation after 24 hrs by Hoechst staining based phase contrast microscopy; assay type: functional
HCT-116 [5] = test: Inhibition of PI3K/Akt in human HCT116 cells assessed as Akt phosphorylation at 10 uM after 1 hr by Western blotting analysis; assay type: cell-based
MCF7 [6] = test: Antiproliferative activity against human MCF7 cells after 72 hrs by MTT assay; assay type: functional, cell-based; details: MCF7, 72 h
HeLa = test: Antiproliferative activity against human HeLa cells after 72 hrs by MTT assay; assay type: functional, cell-based
A549 = test: Antiproliferative activity against human A549 cells after 72 hrs by MTT assay; assay type: functional, cell-based; details: A549, 72 h
MCF7 [7] = test: Antiproliferative activity against human MCF7 cells assessed as inhibitory ratio at 10 uM after 72 hrs by MTT assay; assay type: functional; details: MCF7, 72 h

SMILES	IC50 [1] [µM]	IC50 [2] [µM]	inhibition at 10 µM [3] [%]	Activity (HCT-116 [4])	inhibition (HCT-116 [5])	IC50 (MCF7 [6]) [µM]	IC50 (HeLa) [µM]	IC50 (A549) [µM]	inhibition at 10 µM (MCF7 [7]) [%]
NC(=O)c1cc(OC(F)(F)F)cc(-c2nc(N3CCOCC3)nc(N3CCOCC3)n2)c1	0.9	1.53	89.3	Dose-dependent effect	Active	1.25	4.83	2.37	70.7
COc1cc(C(N)=O)cc(-c2nc(N3CCOCC3)nc(N3CCOCC3)n2)c1	–	–	41.2	–	–	–	–	–	42.2
NC(=O)c1cc(-c2nc(N3CCOCC3)nc(N3CCOCC3)n2)ccc1O	–	–	31.7	–	–	–	–	–	32.7
NC(=O)c1cc(OCc2ccccc2)cc(-c2nc(N3CCOCC3)nc(N3CCOCC3)n2)c1	–	–	31.6	–	–	–	–	–	32.5
CN1CCN(c2nc(-c3cc(C(N)=O)cc(C(F)(F)F)c3)nc(N3CCOCC3)n2)CC1	–	–	36.2	–	–	–	–	–	40.2
NC(=O)c1cc(-c2nc(NCC(=O)N3CCOCC3)nc(N3CCOCC3)n2)cc(C(F)(F)F)c1	–	–	29.2	–	–	–	–	–	30.3
COC(=O)c1cc(-c2nc(N3CCOCC3)nc(N3CCOCC3)n2)cc(C(F)(F)F)c1	–	–	40	–	–	–	–	–	37.2
NC(=O)c1cc(-c2nc(N3CCOCC3)nc(N3CCOCC3)n2)ccc1Cl	–	–	35.6	–	–	–	–	–	34.4
NC(=O)c1cc(-c2nc(N3CCOCC3)nc(N3CCOCC3)n2)cc(C(F)(F)F)c1	2.43	11.2	71.4	–	–	4.97	8.07	8.23	59.3
CN(c1nc(-c2cc(C(N)=O)cc(C(F)(F)F)c2)nc(N2CCOCC2)n1)C1CCN(S(C)(=O)=O)CC1	1.94	4.63	72	–	–	2.13	7.12	2.36	61.7
CS(=O)(=O)N1CCN(C(=O)CNc2nc(-c3cc(C(N)=O)cc(C(F)(F)F)c3)nc(N3CCOCC3)n2)CC1	–	–	29.8	–	–	–	–	–	19.3
O=C(O)c1cc(-c2nc(N3CCOCC3)nc(N3CCOCC3)n2)cc(C(F)(F)F)c1	–	–	44.9	–	–	–	–	–	34.4
NC(=O)c1cc(O)cc(-c2nc(N3CCOCC3)nc(N3CCOCC3)n2)c1	1.19	3.21	77.9	–	–	2.17	8.17	3.72	65.8
COc1ccc(-c2nc(N3CCOCC3)nc(N3CCOCC3)n2)cc1C(N)=O	–	–	40.4	–	–	–	–	–	36.2
CS(=O)(=O)NC1CCN(c2nc(-c3cc(C(N)=O)cc(C(F)(F)F)c3)nc(N3CCOCC3)n2)CC1	–	–	19	–	–	–	–	–	49.3
CS(=O)(=O)N1CCC(Nc2nc(-c3cc(C(N)=O)cc(C(F)(F)F)c3)nc(N3CCOCC3)n2)CC1	–	–	42.9	–	–	–	–	–	30.9
CS(=O)(=O)N1CCN(c2nc(-c3cc(C(N)=O)cc(C(F)(F)F)c3)nc(N3CCOCC3)n2)CC1	–	–	19.4	–	–	–	–	–	47.4
NC(=O)c1cccc(-c2nc(N3CCOCC3)nc(N3CCOCC3)n2)c1	–	–	51.1	–	–	–	–	–	38
NC(=O)c1cc(-c2nc(N3CCOCC3)nc(N3CCOCC3)n2)ccc1OCc1cccc(F)c1	–	–	35.9	–	–	–	–	–	26.2
CN(CCCC(=O)N1CCN(S(C)(=O)=O)CC1)c1nc(-c2cc(C(N)=O)cc(C(F)(F)F)c2)nc(N2CCOCC2)n1	–	–	40.8	–	–	–	–	–	37.7
NC(=O)c1cc(-c2nc(N3CCOCC3)nc(N3CCOCC3)n2)ccc1OCc1ccc(F)cc1	2.87	3.98	66.9	–	–	5.23	> 20	11.3	54.9
CN(CCCC(=O)N1CCOCC1)c1nc(-c2cc(C(N)=O)cc(C(F)(F)F)c2)nc(N2CCOCC2)n1	–	–	44.8	–	–	–	–	–	38.5
Nc1cc(C(F)(F)F)c(-c2cc(N3CCOCC3)nc(N3CCOCC3)n2)cn1 [BUPARLISIB]	0.48	1.64	89.5	–	Active	1	4.34	2.07	84
NC(=O)c1cc(-c2nc(N3CCOCC3)nc(N3CCOCC3)n2)ccc1OCc1ccccc1	–	–	29.9	–	–	–	–	–	31.2

From ChEMBL document CHEMBL3399917, “Design, synthesis and antiproliferative activity evaluation of m-(4-morpholinyl-1,3,5-triazin-2-yl)benzamides in vitro” (Bioorg Med Chem Lett, 2015)
